# Legend:
# [1] = target: T1, purified recombinant human PI3K enzyme γ (Homo sapiens, UniProt P48736); experiment: Inhibition of PI3-Kinase enzymatic activity (HTRF enzyme assay), γ; format: biochemical; details: 1 μM compound; PI3K γ 100 ng/well; PIP2 10 μM; ATP 50 μM; read-out: Percentage inhibition of PI3K activity, γ
# T1 construct: purchased Invitrogen, USA
# Protocol: (§1) Inhibition of PI3-Kinase enzymatic activity was determined using a homogeneous time-resolved fluorescence (HTRF) kit from Eurofins. 1 μM of Compounds of present invention were premixed with DMSO. The experiment was initiated by mixing 1.0% DMSO as vehicle/compounds with purified recombinant human PI3K enzyme {δ (50 ng/well); γ (100 ng/well)} (Invitrogen, USA) and substrate (PIP2, 10 μM) in the wells and incubation for 15 min at room temperature. There after ATP was added (δ at 200 μM, and γ at 50 μM) in to the wells containing reaction mixture, followed by re-incubation for 30 minutes at room temperature. Reaction was terminated by addition of a stopping solution and was further incubated for 4 hours at room temperature before reading using Envision multimode reader (Perkin Elmer). Percentage inhibition of PI3K activity was calculated by determining ratio of specific europium 665 nm energy transfer signal to reference 615 nm signals.
# [2] = target: T2, purified recombinant human PI3K enzyme δ (Homo sapiens, UniProt O00329); experiment: Inhibition of PI3-Kinase enzymatic activity (HTRF enzyme assay), δ; format: biochemical; details: 1 μM compound; PI3K δ 50 ng/well; PIP2 10 μM; ATP 200 μM; read-out: Percentage inhibition of PI3K activity, δ
# T2 construct: purchased Invitrogen, USA
# Protocol: as §1
# T1 sequence (P48736 whole entry): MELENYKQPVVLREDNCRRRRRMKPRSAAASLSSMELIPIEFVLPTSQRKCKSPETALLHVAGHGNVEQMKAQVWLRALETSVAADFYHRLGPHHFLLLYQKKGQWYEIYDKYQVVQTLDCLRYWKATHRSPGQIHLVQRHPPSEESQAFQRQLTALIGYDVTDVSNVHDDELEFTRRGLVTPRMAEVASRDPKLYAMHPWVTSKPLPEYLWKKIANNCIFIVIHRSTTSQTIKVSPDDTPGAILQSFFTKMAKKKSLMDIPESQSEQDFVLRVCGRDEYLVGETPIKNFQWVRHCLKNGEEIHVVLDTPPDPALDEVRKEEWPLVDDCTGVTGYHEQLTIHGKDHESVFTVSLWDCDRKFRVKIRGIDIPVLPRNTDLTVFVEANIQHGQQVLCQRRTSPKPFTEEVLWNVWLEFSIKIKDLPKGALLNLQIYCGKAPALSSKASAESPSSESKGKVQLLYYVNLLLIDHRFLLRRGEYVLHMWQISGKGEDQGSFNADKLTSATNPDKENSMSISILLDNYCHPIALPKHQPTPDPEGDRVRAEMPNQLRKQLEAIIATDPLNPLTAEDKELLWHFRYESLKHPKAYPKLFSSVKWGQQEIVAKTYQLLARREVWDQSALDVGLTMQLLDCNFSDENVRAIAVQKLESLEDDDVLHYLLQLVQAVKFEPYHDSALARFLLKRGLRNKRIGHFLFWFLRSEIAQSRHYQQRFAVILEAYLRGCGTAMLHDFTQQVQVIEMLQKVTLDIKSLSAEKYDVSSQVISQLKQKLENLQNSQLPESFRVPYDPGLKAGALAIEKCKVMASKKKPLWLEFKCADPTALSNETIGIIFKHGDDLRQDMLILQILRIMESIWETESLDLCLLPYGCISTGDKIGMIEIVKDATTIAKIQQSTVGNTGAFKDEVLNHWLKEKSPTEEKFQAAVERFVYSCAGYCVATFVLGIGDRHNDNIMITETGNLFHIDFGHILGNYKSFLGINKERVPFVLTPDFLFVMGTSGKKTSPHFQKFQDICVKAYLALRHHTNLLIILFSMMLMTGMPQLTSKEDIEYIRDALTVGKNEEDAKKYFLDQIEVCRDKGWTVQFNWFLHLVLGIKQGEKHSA
# T2 sequence (O00329 whole entry): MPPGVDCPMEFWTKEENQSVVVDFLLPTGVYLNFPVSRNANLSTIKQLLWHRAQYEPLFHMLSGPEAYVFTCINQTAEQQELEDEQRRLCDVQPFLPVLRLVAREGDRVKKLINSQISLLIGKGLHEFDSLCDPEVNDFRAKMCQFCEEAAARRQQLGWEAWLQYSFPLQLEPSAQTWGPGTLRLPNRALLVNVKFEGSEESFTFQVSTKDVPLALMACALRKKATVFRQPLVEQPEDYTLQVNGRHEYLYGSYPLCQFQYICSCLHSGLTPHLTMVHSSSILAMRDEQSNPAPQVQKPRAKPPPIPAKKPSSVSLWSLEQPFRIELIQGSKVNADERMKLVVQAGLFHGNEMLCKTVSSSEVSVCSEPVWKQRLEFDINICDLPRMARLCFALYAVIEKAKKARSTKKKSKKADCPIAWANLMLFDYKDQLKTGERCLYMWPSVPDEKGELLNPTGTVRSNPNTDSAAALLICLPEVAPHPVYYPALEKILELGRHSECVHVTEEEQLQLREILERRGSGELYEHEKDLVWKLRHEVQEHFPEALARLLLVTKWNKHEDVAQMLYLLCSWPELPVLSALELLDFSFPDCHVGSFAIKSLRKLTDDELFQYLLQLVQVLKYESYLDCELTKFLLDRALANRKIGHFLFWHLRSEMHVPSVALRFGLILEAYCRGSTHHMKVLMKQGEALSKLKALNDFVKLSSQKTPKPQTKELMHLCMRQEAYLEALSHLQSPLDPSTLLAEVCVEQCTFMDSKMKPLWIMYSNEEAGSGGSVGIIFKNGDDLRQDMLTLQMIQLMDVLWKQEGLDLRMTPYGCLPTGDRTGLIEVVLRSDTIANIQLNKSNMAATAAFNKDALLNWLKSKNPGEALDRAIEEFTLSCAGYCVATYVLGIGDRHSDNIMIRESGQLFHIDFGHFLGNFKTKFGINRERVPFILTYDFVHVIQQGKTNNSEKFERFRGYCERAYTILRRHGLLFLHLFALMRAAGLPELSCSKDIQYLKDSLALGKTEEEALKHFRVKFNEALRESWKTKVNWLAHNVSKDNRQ
# T2 sequence (P27986 whole entry partner): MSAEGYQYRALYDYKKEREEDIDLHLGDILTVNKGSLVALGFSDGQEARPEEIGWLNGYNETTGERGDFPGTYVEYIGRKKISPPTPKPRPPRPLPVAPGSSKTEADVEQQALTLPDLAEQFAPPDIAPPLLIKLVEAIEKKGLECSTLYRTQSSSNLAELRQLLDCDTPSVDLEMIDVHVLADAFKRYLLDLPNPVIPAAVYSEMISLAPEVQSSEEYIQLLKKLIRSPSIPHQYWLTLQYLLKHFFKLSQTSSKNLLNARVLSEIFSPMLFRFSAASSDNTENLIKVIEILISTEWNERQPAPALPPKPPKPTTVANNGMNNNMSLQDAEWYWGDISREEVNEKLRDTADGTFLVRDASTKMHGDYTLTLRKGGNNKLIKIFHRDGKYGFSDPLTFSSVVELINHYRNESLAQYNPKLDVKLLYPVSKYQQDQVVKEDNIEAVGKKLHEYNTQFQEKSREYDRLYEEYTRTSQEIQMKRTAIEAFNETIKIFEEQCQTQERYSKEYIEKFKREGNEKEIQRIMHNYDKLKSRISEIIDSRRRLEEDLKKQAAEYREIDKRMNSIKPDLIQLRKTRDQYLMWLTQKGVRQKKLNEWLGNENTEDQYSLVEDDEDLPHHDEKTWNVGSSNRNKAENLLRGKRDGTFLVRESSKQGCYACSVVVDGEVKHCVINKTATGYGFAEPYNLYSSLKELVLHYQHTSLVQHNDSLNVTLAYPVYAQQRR
SMILES,inhibition at 1 µM [1],inhibition at 1 µM [2]
"CC1(C)Cc2c(-c3nn(Cc4nc5cccc(-c6ccncc6)c5c(=O)n4C4(c5ccccc5)CC4)c4ncnc(N)c34)ccc(O)c2O1 [compound 21, 2-{[4-amino-3-(7-hydroxy-2,2-dimethyl-2,3-dihydro-1-benzofuran-4-yl)-1H-pyrazolo[3,4-d]pyrimidin-1-yl]methyl}-3-(1-phenylcyclopropyl)-5-(pyridin-4-yl)quinazolin-4(3H)-one]",60 to 80%,80 to 100%
"CC1(C)Cc2c(-c3nn(Cc4nc5cccc(Cl)c5c(=O)n4-n4cccc4)c4ncnc(N)c34)ccc(O)c2O1 [Compound No. 3, 2-{[4-amino-3-(7-hydroxy-2,2-dimethyl-2,3-dihydro-1-benzofuran-4-yl)-1H-pyrazolo[3,4-d]pyrimidin-1-yl]methyl}-5-chloro-3-(1H-pyrrol-1-yl)quinazolin-4(3H)-one]",80 to 100%,80 to 100%
"COc1ccc(-c2nn(Cc3nc4cccc(C)c4c(=O)n3-n3cccc3)c3ncnc(N)c23)c2c1OC(C)(C)C2 [compound 84, 2-{[4-amino-3-(7-methoxy-2,2-dimethyl-2,3-dihydro-1-benzofuran-4-yl)-1H-pyrazolo[3,4-d]pyrimidin-1-yl]methyl}-5-methyl-3-(1H-pyrrol-1-yl)quinazolin-4(3H)-one]",60 to 80%,80 to 100%
"CC(=O)NCC#Cc1cccc2nc(Cn3nc(-c4ccc(O)c5c4CC(C)(C)O5)c4c(N)ncnc43)n(-n3cccc3)c(=O)c12 [compound 28, N-{3-[2-{[4-amino-3-(7-hydroxy-2,2-dimethyl-2,3-dihydro-1-benzofuran-4-yl)-1H-pyrazolo[3,4-d]pyrimidin-1-yl]methyl}-4-oxo-3-(1H-pyrrol-1-yl)-3,4-dihydroquinazolin-5-yl]prop-2-yn-1-yl}acetamide]",80 to 100%,80 to 100%
"Cc1cccc2nc(Cn3nc(-c4ccc(O)c5c4CC(C)(C)O5)c4c(N)ncnc43)n(C3(c4ccccc4)CC3)c(=O)c12 [Compound No. 8, 2-{[4-amino-3-(7-hydroxy-2,2-dimethyl-2,3-dihydro-1-benzofuran-4-yl)-1H-pyrazolo[3,4-d]pyrimidin-1-yl]methyl}-5-methyl-3-(1-phenylcyclopropyl)quinazolin-4(3H)-one]",60 to 80%,80 to 100%
"Cc1ccc(-c2cccc3nc(Cn4nc(-c5ccc(O)c6c5CC(C)(C)O6)c5c(N)ncnc54)n(C4(c5ccccc5)CC4)c(=O)c23)o1 [compound 17, 2-{[4-amino-3-(7-hydroxy-2,2-dimethyl-2,3-dihydro-1-benzofuran-4-yl)-1H-pyrazolo[3,4-d]pyrimidin-1-yl]methyl}-5-(5-methylfuran-2-yl)-3-(1-phenylcyclopropyl)quinazolin-4(3H)-one]",60 to 80%,60 to 80%
"Cc1ccc(C)n1-n1c(Cn2nc(-c3ccc(O)c4c3CC(C)(C)O4)c3c(N)ncnc32)nc2cccc(-c3cnn(C)c3)c2c1=O [compound 62, 2-{[4-amino-3-(7-hydroxy-2,2-dimethyl-2,3-dihydro-1-benzofuran-4-yl)-1H-pyrazolo[3,4-d]pyrimidin-1-yl]methyl}-3-(2,5-dimethyl-1H-pyrrol-1-yl)-5-(1-methyl-1H-pyrazol-4-yl)quinazolin-4(3H)-one]",60 to 80%,80 to 100%
"Cc1cccc2nc(Cn3nc(-c4ccc(O)c5c4CC(C)(C)O5)c4c(N)ncnc43)n(-n3cccc3)c(=O)c12 [Compound No. 2, 2-{[4-amino-3-(7-hydroxy-2,2-dimethyl-2,3-dihydro-1-benzofuran-4-yl)-1H-pyrazolo[3,4-d]pyrimidin-1-yl]methyl}-5-methyl-3-(1H-pyrrol-1-yl)quinazolin-4(3H)-one]",80 to 100%,80 to 100%

# From patent publication US20190127381A1, “SUBSTITUTED FUSED PYRIMIDINONE COMPOUNDS” (TORRENT PHARMACEUTICALS LIMITED, priority 2016, published 2019)
